Test results: the NIST ThermoML archive (doi:10.1016/j.jct.2016.10.033)
Numbers after ± are expanded uncertainties.

Assay: refractive index (Na D-line) (dimensionless); xn = mol fraction of the nth substance listed
Settings: 103 kPa, Liquid, Standard Abbe refractometry

CO[Si](C)(C)OC [dimethoxydimethylsilane] + CO[Si](C)(OC)c1ccccc1
refractive index
Settings | 298.15 K | 303.15 K | 308.15 K | 313.15 K | 318.15 K
x2 = 0 | 1.36816 ± 0.004 | 1.36559 ± 0.004 | 1.36297 ± 0.004 | 1.36035 ± 0.004 | 1.35771 ± 0.004
x2 = 0.0501 | 1.37551 ± 0.004 | 1.37295 ± 0.004 | 1.37035 ± 0.004 | 1.36774 ± 0.004 | 1.36513 ± 0.004
x2 = 0.1001 | 1.3826 ± 0.004 | 1.38005 ± 0.004 | 1.37748 ± 0.004 | 1.37492 ± 0.004 | 1.37233 ± 0.004
x2 = 0.15 | 1.38945 ± 0.004 | 1.38696 ± 0.004 | 1.38442 ± 0.004 | 1.3819 ± 0.004 | 1.37936 ± 0.004
x2 = 0.2 | 1.3961 ± 0.004 | 1.39364 ± 0.004 | 1.39111 ± 0.004 | 1.38864 ± 0.004 | 1.38612 ± 0.004
x2 = 0.25 | 1.40247 ± 0.004 | 1.40001 ± 0.004 | 1.39748 ± 0.004 | 1.39498 ± 0.004 | 1.39248 ± 0.004
x2 = 0.2999 | 1.40864 ± 0.004 | 1.40619 ± 0.004 | 1.40369 ± 0.004 | 1.40119 ± 0.004 | 1.3987 ± 0.004
x2 = 0.3499 | 1.41459 ± 0.004 | 1.41213 ± 0.004 | 1.40966 ± 0.004 | 1.40726 ± 0.004 | 1.4048 ± 0.004
x2 = 0.4001 | 1.42041 ± 0.004 | 1.41798 ± 0.004 | 1.41551 ± 0.004 | 1.41306 ± 0.004 | 1.41059 ± 0.004
x2 = 0.4501 | 1.42603 ± 0.004 | 1.42366 ± 0.004 | 1.42126 ± 0.004 | 1.41886 ± 0.004 | 1.41642 ± 0.004
x2 = 0.5001 | 1.43147 ± 0.004 | 1.42909 ± 0.004 | 1.42667 ± 0.004 | 1.42426 ± 0.004 | 1.42184 ± 0.004
x2 = 0.55 | 1.43672 ± 0.004 | 1.43435 ± 0.004 | 1.43195 ± 0.004 | 1.42958 ± 0.004 | 1.42718 ± 0.004
x2 = 0.6 | 1.44182 ± 0.004 | 1.43946 ± 0.004 | 1.43707 ± 0.004 | 1.43469 ± 0.004 | 1.43232 ± 0.004
x2 = 0.6499 | 1.44673 ± 0.004 | 1.44437 ± 0.004 | 1.44197 ± 0.004 | 1.43957 ± 0.004 | 1.43718 ± 0.004
x2 = 0.6999 | 1.45155 ± 0.004 | 1.4492 ± 0.004 | 1.44681 ± 0.004 | 1.44442 ± 0.004 | 1.44204 ± 0.004
x2 = 0.75 | 1.45621 ± 0.004 | 1.45386 ± 0.004 | 1.45148 ± 0.004 | 1.44913 ± 0.004 | 1.44677 ± 0.004
x2 = 0.7997 | 1.46072 ± 0.004 | 1.45837 ± 0.004 | 1.456 ± 0.004 | 1.45364 ± 0.004 | 1.45125 ± 0.004
x2 = 0.8499 | 1.46514 ± 0.004 | 1.46278 ± 0.004 | 1.46042 ± 0.004 | 1.45805 ± 0.004 | 1.45569 ± 0.004
x2 = 0.8999 | 1.46939 ± 0.004 | 1.46704 ± 0.004 | 1.46469 ± 0.004 | 1.46234 ± 0.004 | 1.45999 ± 0.004
x2 = 0.95 | 1.47356 ± 0.004 | 1.47121 ± 0.004 | 1.46886 ± 0.004 | 1.46651 ± 0.004 | 1.46417 ± 0.004
